Laboratory results published in US20240246932A1 (Merck Sharp & Dohme LLC, priority 2021, published 2024).

The compounds below were run against human NaV 1.8 channels stably expressed in HEK 293 cells (Homo sapiens (Human), UniProt Q9Y5Y9) (assay: Nav1.8 Qube automated patch-clamp assay). Conditions: human NaV1.8 in HEK 293 cells, whole-cell voltage clamp, room temperature; read-out: IC50 values (nM) for Examples in the Nav1.8 Qube Assay.
Type: cell-based
Procedure: Compounds were tested on human NaV 1.8 and NaV1.5 channels stably expressed in human embryo kidney (HEK) 293 cells. Sodium current measurements on Qube® were conducted as follows: automated 384-well patch-clamp assays on the Qube® platform (Sophion Biosciences) were used to measure the inhibition of sodium flow through human NaV1.8 and NaV1.5 channels. Whole-cell voltage-clamp recordings were performed in QChips® (Sophion Biosciences) at room temperature. NaV1.8 current measurements on Qube® were obtained as follows: NaV1.8 currents were elicited with a 10 second 1 Hertz (Hz) pulse train from a holding potential of −90 millivolts (mV), delivered to the cells once per minute in the control condition (DMSO only) and after compound addition. The 1 hertz pulse train stimulation consisted of ten test pulses to 10 millivolt (mV) for 20 milliseconds (ms), each of which was followed by a 980 millisecond repolarization to −67 millivolts. At the end of the 10 second pulse train stimulation, a 5 second hyperpolarization step to −100 millivolt (mV) was used to recover NaV1.8 from fast inactivation. The peak currents elicited by the 1st and 10th test pulses were used to determine IC50 values for resting inhibition and inactivated state inhibition. NaV1.5 current measurements on Qube® were obtained as follows: NaV1.5 currents were elicited with a 20 second 3 Hertz pulse train in the control condition (DMSO only) and after compound addition. The pulse train consisted of sixty 20 millisecond test pulses to 0 millivolt from a holding potential of −80 millivolt (mV). The average peak currents elicited by the last 3 test pulses were used to determine IC50 values for NaV1.5 inhibition.
The following buffers were used for the Qube® recordings: External buffer for NaV1.8 Qube® recording: 150 NaCl, 2 CaCl2, 5 KCl, 1 MgCl2, 10 HEPES, 12 Dextrose; External buffer for Qube® NaV1.5 recording: 120 N-Methyl-D-Glucamine, 40 NaCl, 1 KCl, 2.7 CaCl2), 5 HEPES, 0.5 MgCl2; and Internal buffer for Qube® recording: 120 CsF, 30 CsCl, 10 EGTA, 5 HEPES, 5 NaF, 2 MgCl2.
For all Qube® experiments offline analysis was used to determine percent inhibition as a function of drug concentration. IC50 values were determined by fitting to the Hill equation.

Sequence of human NaV 1.8 channels stably expressed in HEK 293 cells (Q9Y5Y9 whole entry): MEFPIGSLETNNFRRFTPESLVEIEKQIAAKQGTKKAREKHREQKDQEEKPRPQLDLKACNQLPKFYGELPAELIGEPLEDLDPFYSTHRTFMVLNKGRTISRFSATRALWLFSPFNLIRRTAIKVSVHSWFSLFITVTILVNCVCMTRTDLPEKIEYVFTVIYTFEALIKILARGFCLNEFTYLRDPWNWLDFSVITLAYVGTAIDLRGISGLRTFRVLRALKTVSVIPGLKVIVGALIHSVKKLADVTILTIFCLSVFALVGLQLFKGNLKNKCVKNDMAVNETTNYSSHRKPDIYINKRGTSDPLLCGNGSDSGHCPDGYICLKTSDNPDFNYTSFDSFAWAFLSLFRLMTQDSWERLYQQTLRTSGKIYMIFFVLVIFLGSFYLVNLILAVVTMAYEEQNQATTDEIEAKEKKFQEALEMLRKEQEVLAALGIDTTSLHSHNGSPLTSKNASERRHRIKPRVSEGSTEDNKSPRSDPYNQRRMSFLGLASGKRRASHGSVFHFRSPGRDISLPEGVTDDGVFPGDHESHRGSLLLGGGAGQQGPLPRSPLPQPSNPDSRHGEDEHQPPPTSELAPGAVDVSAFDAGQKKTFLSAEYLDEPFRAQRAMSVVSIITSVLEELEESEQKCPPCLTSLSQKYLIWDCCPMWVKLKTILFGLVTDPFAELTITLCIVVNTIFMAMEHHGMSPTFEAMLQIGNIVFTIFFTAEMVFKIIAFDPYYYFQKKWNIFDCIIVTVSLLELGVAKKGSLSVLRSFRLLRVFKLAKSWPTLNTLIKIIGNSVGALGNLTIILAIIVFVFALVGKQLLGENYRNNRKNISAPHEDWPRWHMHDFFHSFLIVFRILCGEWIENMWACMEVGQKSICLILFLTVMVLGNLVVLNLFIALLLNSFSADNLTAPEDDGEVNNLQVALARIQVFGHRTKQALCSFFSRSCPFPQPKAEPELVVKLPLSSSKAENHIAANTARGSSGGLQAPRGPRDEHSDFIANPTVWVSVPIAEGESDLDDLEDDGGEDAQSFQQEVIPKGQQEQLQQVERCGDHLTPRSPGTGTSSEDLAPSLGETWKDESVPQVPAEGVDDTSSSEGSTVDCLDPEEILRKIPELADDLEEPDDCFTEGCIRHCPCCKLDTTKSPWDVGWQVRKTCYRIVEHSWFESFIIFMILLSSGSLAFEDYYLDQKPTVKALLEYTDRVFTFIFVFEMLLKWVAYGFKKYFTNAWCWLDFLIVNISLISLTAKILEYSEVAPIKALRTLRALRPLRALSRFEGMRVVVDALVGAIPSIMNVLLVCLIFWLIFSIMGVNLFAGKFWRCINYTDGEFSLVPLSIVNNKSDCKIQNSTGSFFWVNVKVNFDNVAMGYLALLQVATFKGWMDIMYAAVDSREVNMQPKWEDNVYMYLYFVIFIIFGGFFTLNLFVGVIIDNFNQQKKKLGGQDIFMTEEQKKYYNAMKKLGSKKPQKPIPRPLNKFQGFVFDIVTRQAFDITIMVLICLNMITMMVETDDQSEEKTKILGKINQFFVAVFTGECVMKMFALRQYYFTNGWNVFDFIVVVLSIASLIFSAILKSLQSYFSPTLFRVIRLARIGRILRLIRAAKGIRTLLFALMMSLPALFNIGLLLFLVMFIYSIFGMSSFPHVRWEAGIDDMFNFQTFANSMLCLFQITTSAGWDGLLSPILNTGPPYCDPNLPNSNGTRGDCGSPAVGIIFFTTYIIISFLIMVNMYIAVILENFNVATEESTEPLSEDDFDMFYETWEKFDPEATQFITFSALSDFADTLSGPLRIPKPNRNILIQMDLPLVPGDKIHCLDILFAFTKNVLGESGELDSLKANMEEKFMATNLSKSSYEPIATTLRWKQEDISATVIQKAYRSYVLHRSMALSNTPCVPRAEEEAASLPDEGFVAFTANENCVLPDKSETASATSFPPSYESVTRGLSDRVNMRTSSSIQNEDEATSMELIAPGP

| SMILES | IC50 [nM] |
| --- | --- |
| C[C@@H]1C(=O)NCCN1C(=O)NC(c1cnc(OCC(F)(F)F)s1)c1ccc(F)c(Cl)c1F (single isomer, unassigned) [Example 13B, (2R)-N-((S or R)-(3-chloro-2,4-difluoro-phenyl)(2-(2,2,2-trifluoroethoxy)thiazol-5-yl)methyl)-2-methyl-3-oxopiperazine-1-carboxamide] | 9.42 |
| C[C@@H]1C(=O)NCCN1C(=O)NC(c1cnc(OC(F)F)s1)c1ccc(F)c(Cl)c1F (single isomer, unassigned) [Example 14A, (2R)-N-((R or S)-(3-chloro-2,4-difluorophenyl)(2-(difluoromethoxy)thiazol-5-yl)methyl)-2-methyl-3-oxopiperazine-1-carboxamide] | 5.57 |
| C[C@@H]1C(=O)NCCN1C(=O)NC(c1ccc(C(F)(F)F)nc1)c1ccc(F)c(Cl)c1F (single isomer, unassigned) [Example 15B] | 59.9 |
| C[C@@H]1C(=O)NCCN1C(=O)NC(c1ccc(Cl)cc1)c1ccc(C(F)(F)F)nc1 (single isomer, unassigned) [Example 17B, (2R)-N-((S or R)-(4-chlorophenyl)(6-(trifluoromethyl)pyridin-3-yl)methyl)-2-methyl-3-oxopiperazine-1-carboxamide] | 34.6 |
| C[C@@H]1C(=O)NCCN1C(=O)NC(c1ccc(C(F)(F)F)nc1)c1ccc(Cl)c(Cl)c1 (single isomer, unassigned) [Example 18A, (2R)-N-((R or S)-(3,4-dichlorophenyl)(6-(trifluoromethyl)pyridin-3-yl)methyl)-2-methyl-3-oxopiperazine-1-carboxamide] | 3.89 |
| C[C@@H]1C(=O)NCCN1C(=O)NC(c1ccc(C(F)(F)F)nc1)c1ccc(Cl)c(Cl)c1 (single isomer, unassigned) [Example 18B, (2R)-N-((S or R)-(3,4-dichlorophenyl)(6-(trifluoromethyl)pyridin-3-yl)methyl)-2-methyl-3-oxopiperazine-1-carboxamide] | 4.69 |
| C[C@@H]1C(=O)NCCN1C(=O)NC(c1ccc(C(F)(F)F)nc1)c1ccc(F)c(OC(F)(F)F)c1 (single isomer, unassigned) [Example 19A, (2R)-N-((R or S)-(4-fluoro-3-(trifluoro-methoxy)phenyl)(6-(trifluoromethyl)pyridin-3-yl)methyl)-2-methyl-3-oxopiperazine-1-carboxamide] | 41.1 |
| C[C@@H]1C(=O)NCCN1C(=O)NC(c1ccc(C(F)(F)F)nc1)c1ccc(F)c(OC(F)(F)F)c1 (single isomer, unassigned) [Example 19B, (2R)-N-((S or R)-(4-fluoro-3-(trifluoro-methoxy)phenyl)(6-(trifluoromethyl)pyridin-3-yl)methyl)-2-methyl-3-oxopiperazine-1-carboxamide] | 72.6 |
| C[C@@H]1C(=O)NCCN1C(=O)NC(c1ccc(OC(F)(F)F)c(Cl)c1)c1cnc(C(F)(F)F)c(Cl)c1 (single isomer, unassigned) [Example 22A, (2R)-N-((R or S)-(3-chloro-4-(trifluoro-methoxy)phenyl)(5-chloro-6-(trifluoro-methyl)pyridin-3-yl)methyl)-2-methyl-3-oxopiperazine-1-carboxamide] | 0.31 |
| C[C@@H]1C(=O)NCCN1C(=O)NC(c1ccc(OC(F)(F)F)c(Cl)c1)c1cnc(C(F)(F)F)c(Cl)c1 (single isomer, unassigned) [Example 22B, (2R)-N-((S or R)-(3-chloro-4-(trifluoro-methoxy)phenyl)(5-chloro-6-(trifluoro-methyl)pyridin-3-yl)methyl)-2-methyl-3-oxopiperazine-1-carboxamide] | 2.88 |
| C[C@@H]1C(=O)NCCN1C(=O)NC(c1cnc(C(F)(F)F)c(Cl)c1)c1ccc(Cl)c(C#N)c1 (single isomer, unassigned) [Example 23B, (2R)-N-((S or R)-(4-chloro-3-cyano-phenyl)(5-chloro-6-(trifluoromethyl)pyridin-3-yl)methyl)-2-methyl-3-oxopiperazine-1-carboxamide] | 6.06 |
| C[C@@H]1C(=O)NCCN1C(=O)NC(c1ccc(C#N)c(Cl)c1)c1cnc(C(F)(F)F)c(Cl)c1 (single isomer, unassigned) [Example 24A, (2R)-N-((R or S)-(3-chloro-4-cyano-phenyl)(5-chloro-6-(trifluoromethyl)pyridin-3-yl)methyl)-2-methyl-3-oxopiperazine-1-carboxamide] | 22.3 |
| C[C@@H]1C(=O)NCCN1C(=O)NC(c1ccc(C#N)c(Cl)c1)c1cnc(C(F)(F)F)c(Cl)c1 (single isomer, unassigned) [Example 24B, (2R)-N-((S or R)-(3-chloro-4-cyano-phenyl)(5-chloro-6-(trifluoromethyl)pyridin-3-yl)methyl)-2-methyl-3-oxopiperazine-1-carboxamide] | 2.84 |

Other lines, results leading:

| IC50 [nM] | SMILES |
| --- | --- |
| 101 | C[C@@H]1C(=O)NCCN1C(=O)NC(c1cnc(OC(F)F)s1)c1ccc(F)c(Cl)c1F (single isomer, unassigned) [Example 14B, (2R)-N-((S or R)-(3-chloro-2,4-difluorophenyl)(2-(difluoromethoxy)thiazol-5-yl)methyl)-2-methyl-3-oxopiperazine-1-carboxamide] |
| 4.74 | C[C@@H]1C(=O)NCCN1C(=O)NC(c1ccc(C(F)(F)F)nc1)c1ccc(F)c(Cl)c1F (single isomer, unassigned) [Example 15A] |
| 13.5 | C[C@@H]1C(=O)NCCN1C(=O)NC(c1ccc(C(F)(F)F)nc1)c1ccc(F)c(Cl)c1 (single isomer, unassigned) [Example 16A, (2R)-N-((R or S)-(3-chloro-4-fluorophenyl)(6-(trifluoromethyl)pyridin-3-yl)methyl)-2-methyl-3-oxopiperazine-1-carboxamide] |
| 31.7 | C[C@@H]1C(=O)NCCN1C(=O)NC(c1ccc(C(F)(F)F)nc1)c1ccc(F)c(Cl)c1 (single isomer, unassigned) [Example 16B, (2R)-N-((S or R)-(3-chloro-4-fluorophenyl)(6-(trifluoromethyl)pyridin-3-yl)methyl)-2-methyl-3-oxopiperazine-1-carboxamide] |
| 101 | C[C@@H]1C(=O)NCCN1C(=O)NC(c1ccc(Cl)cc1)c1ccc(C(F)(F)F)nc1 (single isomer, unassigned) [Example 17A, (2R)-N-((R or S)-(4-chlorophenyl)(6-(trifluoromethyl)pyridin-3-yl)methyl)-2-methyl-3-oxopiperazine-1-carboxamide] |
| 4.01 | C[C@@H]1C(=O)NCCN1C(=O)NC(c1ccc(OC(F)(F)F)cc1)c1cnc(C(F)(F)F)c(Cl)c1 (single isomer, unassigned) [Example 20A, (2R)-N-((R or S)-(5-chloro-6-(trifluoro-methyl)pyridin-3-yl)(4-(trifluoromethoxy)phenyl)methyl)-2-methyl-3-oxopiperazine-1-carboxamide] |
| 4 | C[C@@H]1C(=O)NCCN1C(=O)NC(c1ccc(OC(F)(F)F)cc1)c1cnc(C(F)(F)F)c(Cl)c1 (single isomer, unassigned) [Example 20B, (2R)-N-((S or R)-(5-chloro-6-(trifluoro-methyl)pyridin-3-yl)(4-(trifluoromethoxy)phenyl)methyl)-2-methyl-3-oxopiperazine-1-carboxamide] |
| 1.45 | C[C@@H]1C(=O)NCCN1C(=O)NC(c1ccc(OC(F)(F)F)c(F)c1)c1cnc(C(F)(F)F)c(Cl)c1 (single isomer, unassigned) [Example 21A, (2R)-N-((R or S)-(5-chloro-6-(trifluoro-methyl)pyridin-3-yl)(3-fluoro-4-(trifluoromethoxy)phenyl)methyl)-2-methyl-3-oxopiperazine-1-carboxamide] |
| 7.71 | C[C@@H]1C(=O)NCCN1C(=O)NC(c1ccc(OC(F)(F)F)c(F)c1)c1cnc(C(F)(F)F)c(Cl)c1 (single isomer, unassigned) [Example 21B, (2R)-N-((S or R)-(5-chloro-6-(trifluoro-methyl)pyridin-3-yl)(3-fluoro-4-(trifluoro-methoxy)phenyl)methyl)-2-methyl-3-oxo-piperazine-1-carboxamide] |
| 17 | C[C@@H]1C(=O)NCCN1C(=O)NC(c1cnc(C(F)(F)F)c(Cl)c1)c1ccc(Cl)c(C#N)c1 (single isomer, unassigned) [Example 23A, (2R)-N-((R or S)-(4-chloro-3-cyano-phenyl)(5-chloro-6-(trifluoromethyl)pyridin-3-yl)methyl)-2-methyl-3-oxopiperazine-1-carboxamide] |
